Test results reported in patent US9944607B2, “Thiohydantoin derivatives and uses thereof” (Whitehead Institute for Biomedical Research, priority 2012, dated 2018).

Tests used:
[1] = Plasma stability, human plasma; type: in vitro ADME; settings: 37° C., 5 μM
Experimental: (§1) Plasma stability was determined at 37° C. at 5 hours in both human and mouse plasma. Each compound was prepared in duplicate at 5 μM in plasma diluted 50/50 (v/v) with PBS pH 7.4 (0.95% acetonitrile, 0.05% DMSO). Compounds were incubated at 37° C. for 5 hours with a 250-rpm orbital shake with time points taken at 0 hours and 5 hours.

[2] = test system: Candida albicans CaCi-2; assay: Primary assay: C. albicans CaCi-2 growth inhibition (Alamar Blue); type: cell-based
[3] = Plasma stability, mouse plasma; type: in vitro ADME; settings: 37° C., 5 μM
Experimental: as §1

[4] = test system: Candida albicans CaCi-17; assay: Primary assay: C. albicans CaCi-17 growth inhibition (Alamar Blue); type: cell-based; settings: Candida albicans, CACI17, Tables 9, 10, 12; AID 623897; read-out: C. albicans CaCi-17 growth inhibition IC50
[5] = test system: NIH-3T3 mammalian fibroblasts; assay: Counterscreen mammalian cell toxicity assay (Alamar Blue); type: cell-based, murine; settings: Mus musculus, NIH3T3, Tables 9, 10, 12; AID 602394; read-out: Murine 3T3 fibroblasts growth inhibition (fibroblast toxicity) IC50
How it was run: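 Quiescent NIH-3T3 fibroblasts, cultured overnight, exposed to 100 nL pinned compound for 48 h at 37° C, 5% CO2. Alamar Blue added to 1:200 final, 2-3 h further incubation; fluorescence (RFU) read as relative cell growth.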

[6] = Plasma protein binding by equilibrium dialysis, human plasma; type: in vitro ADME; settings: pH 7.4, 37° C., read-out: Plasma protein binding (% bound), Human (converted)
Experimental: (§2) Plasma protein binding was determined by equilibrium dialysis using the Rapid Equilibrium Dialysis (RED) device (Pierce Biotechnology, Rockford, Ill.) for both human and mouse plasma. Each compound was prepared in duplicate at 5 μM in plasma (0.95% acetonitrile, 0.05% DMSO) and added to one side of the membrane (200 μL) with PBS pH 7.4 added to the other side (350 μL). Compounds were incubated at 37° C. for 5 hours with a 250-rpm orbital shake.

[7] = Plasma protein binding by equilibrium dialysis, mouse plasma; type: in vitro ADME; settings: pH 7.4, murine plasma, 37° C., read-out: Plasma protein binding (% bound), Murine
Experimental: as §2

[8] = test system: mitochondrial function; settings: FIG. 1 legend, known inhibitors; cited from earlier work

| Compound | Plasma stability (% remaining after 5 hours), Human [1] [%] | IC50 ([2]; Candida albicans, CACI2, Tables 9, 10, 12, AID 623899, read-out: C. albicans CaCi-2 growth inhibition IC50) [µM] | Plasma stability (% remaining after 5 hours), Murine [3] [%] | IC50 [4] [µM] | IC50 [5] [µM] | Activity against C. albicans ([2]; CaCi-2, or both test strains (CaCi-2, CaCi-17) where the sentence names none) | fraction unbound at 5 h, 5 μM [6] | fraction unbound at 5 h, 5 μM [7] | Inhibition of mitochondrial function (in words) [8] |
| --- | --- | --- | --- | --- | --- | --- | --- | --- | --- |
| CCOC(=O)N1C(=O)C2(CCCCC2)N(c2ccc(C)cc2)C1=S [CID 3889161] | <1.0 | 0.3 | <1.0 | 8.5 | > 26 |  |  |  |  |
| Cc1ccc(N2C(=S)N(C)C(=O)C23CCCCC3)cc1 [CID 56604835] | 95.7 |  | 96.6 |  |  | no activity | 0.014 | 0.001 |  |
| Antimycin |  |  |  |  |  |  |  |  | potent, but non-selective |
